# “Also recorded” adds a separate entry of the source.
# Key:
# [1] = system: subjects receiving methadone maintenance therapy; test: Double-blind crossover, subjective and physiologic opioid agonist/antagonist measures (Example 6)
# [2] = system: normal, healthy, adult male and female volunteers; test: Safety assessment (Example 5)
# Procedure: (§1) In Example 5, a single center, placebo controlled, double-blind, randomized 9-treatment, 3 period crossover trial with an open-label screening phase was conducted.
# [3] = system: healthy volunteers with hyperalgesia; test: Thermal Discomfort and Pain Latency testing (Example 7); assay type: in vivo, human
# Procedure: (§2) Example 7 consisted of a single center trial conducted as a placebo-controlled, double-blind, randomized, 4-treatment, 4-period crossover study, which included a single-blind phase. Each treatment sequence consisted of 4 treatment periods, each of 4 hours duration, separated by at least a 5-day washout interval. […] The total duration of this study, including screening, was approximately 52 days.
# (§3) After at least 5 days, those subjects who successfully completed the single-blind phase were randomized into the double-blind phase of the study. Healthy male and female volunteers were enrolled in this study.
# A test site and a control site were selected on each forearm and marked with a washable marker. Next, the topical anesthetic was applied to the test site. After approximately 1.5 hours (allowing for the anesthetic to take effect), the cream was removed and a thermal stimulus was applied to the test site for 3 minutes using a copper mass heated to 52° C. […]
# Thermal Discomfort testing was designed to measure a subject's perception of discomfort following a 5-second contact with a warmed 1″ diameter copper mass (Uniformed Services University of the Health Sciences, Bethesda, Md.). […] The distance from the left anchor to the vertical mark was measured and was used as the quantitative measure of Thermal Discomfort. […]
# [4] = system: healthy volunteers with hyperalgesia; test: Pupillometry (Example 7); assay type: in vivo, human
# Procedure: Each treatment sequence consisted of 4 treatment periods, each of 4 hours duration, separated by at least a 5-day washout interval. […] The total duration of this study, including screening, was approximately 52 days.
# as §3
# (§4) The same test measurements conducted at baseline were then conducted at 0.5, 1, 2, 3, and 4 hours postdosing. Thermal Discomfort and Pain Latency testing were conducted at each time point on the control site (area on the other forearm, which was not subjected to the thermal stimulus). Testing on the control site was done prior to the test site for each time point. Each subject rested and recovered for no less than 5 days before returning for the next period. In the follow-up phase, subjects returned to the clinic within 7 days after completion of the study for a final check of the test site and a review of the subject's laboratory data prior to official discharge from the study.
# Pupillometry was performed to measure the effect of the study treatment on pupil diameter. The pupil was photographed using a Polaroid One-Step Closeup Camera (Polaroid Corporation, Cambridge, Mass.) with modified 2× magnification oculars (John Hopkins University, Baltimore, Md.) and Polaroid 600 color film (Polaroid Corporation, Cambridge, Mass.). […] The camera was positioned on the subject's eye socket, aligning the iris with the middle of the opening of the lens adapter. The pupil diameter was measured from the photograph, in millimeters, using Model CD-6C Mitutoyo digital calipers (Judge Tool Sales, Southport, Conn.). The same eye was measured at all times for each subject.
# [5] = system: subjects receiving methadone maintenance therapy; test: Safety measures, double-blind phase (Example 6); assay type: in vivo, human; conditions: with increasing NTX dose; most mild or moderate
# [6] = system: subjects on methadone maintenance therapy; test: Open-label naltrexone titration safety assessment (Example 6); assay type: in vivo, human; conditions: 2 subjects, 30 mg hydrocodone at 0 hr, naltrexone at hourly intervals, oral
# Procedure: Example 6 consisted of open-label and double-blind treatment phases conducted in male and female subjects receiving daily oral methadone maintenance doses from 60 to 90 mg. The methadone maintenance dose was given to the subject the day before each scheduled period. Administration of study medication occurred no sooner than 16 hours and no later than 22 hours after the methadone maintenance dose was given. 14 subjects were enrolled in the study (2 subjects, open-label phase (ascending dose naltrexone safety assessment) and 12 subjects, double-blind phase).
# The open-label phase was a safety assessment of the 2 naltrexone doses (0.75 and 2.0 mg) planned in the protocol in subjects on methadone maintenance therapy. This phase of the study consisted of a screening visit conducted up to 14 days before administration of study drug, and a naltrexone titration visit. During the naltrexone titration visit, 2 subjects were to receive 30 mg of hydrocodone and 0.125 mg of naltrexone at 0 hr, with additional doses of naltrexone, up to a cumulative dose of 2.0 mg, administered at hourly intervals over the next 4 hours. In the open-label phase, neither subject received more than a 1.0-mg cumulative dose of naltrexone before rescue with methadone was required. […]
# [7] = system: minute ventilation in normal, healthy, adult male and female volunteers; test: CO2 rebreathing test, double-blind crossover trial (Example 5); assay type: in vivo, human; conditions: oral NTX 0.125 to 8.0 mg with 15, 20 or 25 mg oral HYIR
# Procedure: as §1
# healthy volunteers = test: Safety and adverse events (Example 7); assay type: in vivo, human
# Procedure: as §2
# An AE (adverse event) was defined as any unfavorable and unintended sign (including abnormal laboratory findings), symptom or disease temporally associated with the use of a medicinal product, whether or not considered related to the medicinal product. An AE was classified as a TEAE (treatment emergent adverse event) only if the AE occurred after the first dose of the study drug was administered to a subject who was enrolled in the study. The period of observation for TEAEs was from the time that the first dose of study medication was administered until release from the study after completion of period 4 or at early discontinuation. All AEs reported by the subject or observed by the investigator/study staff were fully documented throughout the study. When AEs were encountered that required medical intervention, appropriate supportive and/or definitive therapy was provided by appropriately qualified and licensed medical personnel. […]
# [8] = system: healthy volunteers with hyperalgesia; test: Subjective Symptom Rating Scale and Drug Rating Questionnaire (Example 7); assay type: in vivo, human
# Procedure: as §2, §3, §4
# The Symptom Rating Scale Questionnaire consisted of 25 items. […]
# [9] = 0.25-mg NTX dose with 30 mg HYIR
# [10] = 0.5-mg NTX dose with 30 mg HYIR
smiles,measurement,setting,value
"COc1ccc2c3c1O[C@H]1C(=O)CC[C@H]4[C@@H](C2)N(C)CC[C@]314.O=C(O)C(O)C(O)C(=O)O [HYIR, Hydrocodone bitartrate]",changes from predose in all pharmacodynamic variables,[1]; 30 mg HYIR plus NTX placebo,minimal changes from predose
same,subjects requiring a rescue dose of methadone,[1]; 30 mg HYIR plus NTX placebo,4 of the 12
same,subjective or physiologic opioid agonist activity,[1]; 30-mg oral dose of HYIR,did not produce significant subjective or physiologic opioid agonist activity
same,"trend of treatment means (PDmax and AUC) over the 3 periods, FIGS. 1-12",[1]; HYIR+NTX placebo treatment,increase in subjective and physiologic opioid agonist effects
same,safety concerns,"[2]; 15-, 20-, or 25-mg doses of HYIR",no new safety concerns
"O=C1CC[C@@]2(O)[C@H]3Cc4ccc(O)c5c4[C@@]2(CCN3CC2CC2)[C@H]1O5 [NTX, Naltrexone HCI]","difference vs HYIR+placebo NTX in mean Thermal Discomfort VAS scores, Pain Latency, derived pharmacodynamic metrics of hyperalgesia","[3]; 15 mg HYIR + 0.25-, 0.5-, or 1.0-mg NTX, oral",no statistically significant differences
same,reduction of the analgesia produced by 15 mg oral HYIR (Thermal Discomfort VAS scores and Pain Latency testing),"[3]; NTX 0.25, 0.5, or 1.0-mg","None of the doses of NTX used in this study (0.25, 0.5, or 1.0-mg) produced a statistically significant reduction"
same,aversive effects in methadone-maintained subjects,[1]; 0.25- and 0.5-mg oral NTX doses,elicit aversive effects
same,negative feeling states and antagonist activity (precipitated withdrawal),[1]; [9],threshold dose with a trend toward negative feeling states
same,subjects requiring a rescue dose of methadone,[1]; [9],Approximately 60%
same,"difference from NTX placebo treatment in mean PDmax, all queries except ""Feeling sick""",[1]; [10],statistically significant differences
same,"precipitated withdrawal (Drug Effects Scales, antagonist total score, pupil diameter vs NTX placebo)",[1]; [10],strong evidence of precipitated withdrawal
same,subjects requiring a rescue dose of methadone,[1]; [10],~90%
same,"negative feeling states and precipitated withdrawal, dose dependence",[1]; NTX 0.25 and 0.5 mg with 30 mg HYIR,dose-dependent increases in negative feeling states and precipitated withdrawal
same,effect on all secondary pharmacodynamic variables except the agonist total scores from the Subjective and Observer Symptom Rating Scales,"[1]; NTX 0.25 and 0.5 mg with 30 mg HYIR, not always statistically significant",dose-related effect
same,effect on mean PDmax values for all 4 queries on the Subjective Drug Effects Scale,[1]; NTX 0.25 to 0.5 mg with 30 mg HYIR,dose-related effect
same,appeal and abuse liability potential of HYIR,"[1]; low dose NTX added to HYIR, subjects physically dependent on opioids",decreased the appeal
same,statistically significant increase in pupil diameter PDmax compared with HYIR+placebo NTX,[4]; HYIR+0.5 mg NTX and HYIR+1.0-mg NTX,not
same,NTX dose-related effect on the physiologic opioid agonist activity of the 15-mg dose of HYIR,"[4]; NTX 0.25, 0.5, 1.0 mg",no consistent NTX dose-related effect
same,HYIR-induced pupil constriction,"[4]; all NTX doses (0.25, 0.5, 1.0 mg) with 15 mg HYIR",reduced HYIR-induced pupil constriction
same,treatment-emergent adverse events commonly associated with opioid withdrawal per subject,[5],increase in the number of treatment-emergent adverse events
same,cumulative dose of naltrexone received before rescue with methadone was required,[6],≤ 1.0 mg
same,"effect on HYIR-induced respiratory depression (% MPE20, % MPE30, double-blind MPE20 and MPE30)",[7],statistically significant trend toward less respiratory depression; also recorded: blocked respiratory depression
same,number of reported TEAEs commonly associated with opioid use,healthy volunteers; 15 mg HYIR with increasing NTX dose,decreased with increased NTX dose
same,safety concerns,"healthy volunteers; 15 mg of oral HYIR combined with 0.25, 0.5, or 1.0-mg NTX",no safety concerns
same,subjective opioid agonist effects of HYIR (Subjective Symptom Rating Scale and Subjective Drug Rating Questionnaire),"[8]; 15 mg HYIR with placebo, 0.25, 0.5 or 1.0 mg NTX",no statistically significant differences among the treatments or consistent NTX dose-related trends
same,NTX dose-related effect on the subjective opioid agonist activity of the 15-mg dose of HYIR,"[8]; NTX 0.25, 0.5, 1.0 mg",no consistent NTX dose-related effect
same,safety concerns,"[2]; NTX 0.125 to 8.0 mg combined with 15, 20 or 25 mg HYIR",no new safety concerns
